Data: US20090098115A1, “Cell lines and animal models of HER2 expressing tumors” (priority 2006, published 2009)

Key:
[1] = tested on: BT-474 cells; assay: In vitro cell proliferation assay (Cell Titer-Glo), BT-474; type: cell-based, human; settings: BT-474, 0.0001 ug/ml to 10 ug/ml, 72 h (FIGS. 7A, 8A)
Description: (§1) BT-474 and BT-474EE1 cells were plated in 96-well microtiter plates and incubated overnight at 37° in a humidified atmosphere of 5% CO2. […] After incubation for 72 h, Cell Titer-Glo reagent (Promega, Madison, Wis.) was added to the wells, and after a 10-min incubation at room temperature, the luminescent signal was recorded.

[2] = tested on: BT-474EEI cells; assay: In vitro cell proliferation assay (Cell Titer-Glo), BT-474EEI; type: cell-based, human; settings: 0.0001 ug/ml to 10 ug/ml, 72 h (FIGS. 7B, 8B)
Description: as §1

C#Cc1cccc(Nc2ncnc3cc(OCCOC)c(OCCOC)cc23)c1 [Tarceva, Erlotinib]
cell proliferation [1]: decreased with high doses
cell proliferation [2]: reduced at high concentrations
